{"source": "paper doi:10.1101/2020.10.13.337584v1", "about": "(bioRxiv, 2020)", "key": {"[1]": {"test_system": "SARS-CoV2 (SARS CoV-2 USA_WA1/2020) in VERO E6 cells", "assay_type": "cell-based"}, "[2]": {"assay": "Health-related side-effects after daily intranasal administration", "assay_type": "in vivo", "conditions": "0.1 mg/Kg intranasal daily for 10 days, BALB/C mice"}}, "data": [{"smiles": "CC(C)[C@H](NC(=O)CNC(=O)[C@H](CC(N)=O)NC(=O)[C@@H](NC(=O)[C@@H]1CCCN1C(=O)[C@H](CCC(N)=O)NC(=O)[C@H](Cc1ccccc1)NC(=O)CNC(=O)[C@H](Cc1ccc(O)cc1)NC(=O)CCCC[C@@H]1SC[C@@H]2NC(=O)N[C@@H]21)[C@@H](C)O)C(=O)NCC(=O)N[C@@H](Cc1ccc(O)cc1)C(=O)N[C@@H](CCC(N)=O)C(=O)N1CCC[C@H]1C(=O)O", "note": "[KEpTide 1]", "values": [{"measurement": "Grey density (1:20) of crystal violet staining of agar monolayer", "setting": "[1]", "value": "34 ± 32.73"}, {"measurement": "Skin roughness or diarrhea at the end of day 10", "setting": "[2]", "value": "did not see other health issue"}, {"measurement": "Effect on heart rate", "setting": "[2]; n=6 per group, p = 0.0758", "value": "did not cause any loss"}, {"measurement": "Effect on respiratory health (oxygen saturation)", "setting": "[2]; n=6 per group, p = 0.3217", "value": "did not cause any loss"}, {"measurement": "Effect on body temperature", "setting": "[2]; n=6 per group, p = 0.5541", "value": "did not cause any loss"}]}]}
